Laboratory results published in article PMC6100056, “Antitumor Effects and Delivery Profiles of Menahydroquinone-4 Prodrugs with Ionic or Nonionic Promoiety to Hepatocellular Carcinoma Cells” (Molecules : A Journal of Synthetic Chemistry and Natural …, 2018).
Counter-ions that a name gives are not always drawn.

Key:
[1] = tested on: PLC/PRF/5 cells; test: MKH delivery into HCC cells: intracellular MKO and MK-4 concentration-time profiles; format: in vitro ADME; conditions: dose 25 μM, trapezoidal rule
Excerpt: (§1) When assessing the delivery of MKH into HCC cells by MKH-ester prodrugs, although the MKH levels in HCC cells should be quantified, it is difficult to determine an accurate MKH level owing to its rapidly oxidative characteristics to MK-4. Concomitant with γ-carboxylation in producing of vitamin K-dependent proteins, MKH is stoichiometrically converted to MK-4 epoxide (MKO), as shown in Figure 1. Thus, MKO levels in HCC cells can reflect the levels of MKH. In addition, the intracellular MK-4 in HCC cells after MKH-DMG treatment is the oxidative product of MKH, which is generated by hydrolysis of MKH-DMG [22]. The estimation rules of MKH in an earlier report were adopted in this study, in which the sum of MKO and MK-4 levels after MKH-ester prodrug treatment was regarded as the MKH level delivered into HCC cells. In MK-4 treatment, the MKH level was assessed by determining the level of MKO.
(§2) MKH delivery into HCC cells with 25 μM MKH-ester derivatives was determined after 1, 3, 6, 12 or 24 h of incubation. […] The AUC0–24h values for MKO (AUCMKO), MK-4 (AUCMK-4) and MKH (AUCMKH) were calculated using the trapezoidal rule (Table 3). […]
(§3) HCC cells were plated at 1.5 × 10^5 cells/well in 6-well plates and allowed to attach for 48 h. […] The protein concentration of the cell homogenate was determined using a BCA protein assay kit. […]

[2] = tested on: SK-Hep-1 cells; test: as above; format: in vitro ADME; conditions: dose 25 μM, trapezoidal rule
Excerpt: as §1, §2, §3

[3] = tested on: PLC/PRF/5 cells; test: Cell viability assay (Cell Titer-Glo); format: cell-based; conditions: for IC50: Homo sapiens, 95% confidence interval in square brackets
Description: (§4) To assess the effects of MKH-ester prodrugs on HCC cell proliferation, DCP-positive (PLC/PRF/5) and DCP-negative (SK-Hep-1) HCC cell lines were treated with various concentrations of MKH-ACT, MKH-DMG, MKH-SUC or MK-4 up to 96 h, and cell viability was determined.
(§5) Cell viability was determined using a previously reported method. Briefly, PLC/PRF/5 and SK-Hep-1 cells were plated at 5.0 × 10^3 cells/well in 96-well plates and allowed to attach for 48 h. MK-4 and MKH-ACT were dissolved in 99.5% ethanol. MKH-SUC was dissolved in DMSO. MKH-DMG was dissolved in sterilized water. Stock solutions of each drug (50 mM) were diluted to the intended final concentrations with medium. Cells were exposed to MK-4, MKH-ACT, MKH-DMG or MKH-SUC for up to 96 h, and cell viability was evaluated using the Cell Titer-Glo Luminescent Cell Viability Assay (Promega, Madison, WI, USA) according to the manufacturer’s instructions. IC50 values were determined by a log [drug] vs. normalized response-variable slope analysis of GraphPad Prism, version 6.0 (GraphPad Software, San Diego, CA, USA).

[4] = tested on: SK-Hep-1 cells; test: Cell viability assay (Cell Titer-Glo); format: cell-based; conditions: for IC50: Homo sapiens, 95% confidence interval in square brackets
Description: as §4, §5

[5] = tested on: cyclin D1 and CDK4 in PLC/PRF/5 cells; test: Western blotting of cell cycle regulatory proteins; format: cell-based; conditions: 24 h after treatment
Description: We previously reported that MKH-DMG regulates cell cycle-related proteins as a mechanism of MKH-DMG-induced growth inhibition in PLC/PRF/5, Hep3B and SK-Hep-1 cells. Thus, to clarify the mechanisms of the growth inhibition induced by the MKH-ester prodrugs, we analyzed cell cycle-related proteins using Western blotting (Figure 7).
HCC cells were plated at 1.5 × 10^5 cells/well in 6-well plates and allowed to attach for 48 h. Cells were treated with MK-4, MKH-ACT, MKH-DMG or MKH-SUC for 24 h. Western blotting was performed as described previously.

[6] = parameters: method as in PMID 21574174; conditions: clinical dose (45 mg/day) or double dose (90 mg/day); trial in Japan; cited from earlier work

Row | melting point | AUC0–24h for MK-4 [1] | AUC0–24h for MK-4 [2] | IC50 ([4]; SK-HEP1, 72 h) | IC50 ([4]; SK-HEP1, 96 h) | SMILES | Inhibition of cell viability of the control ([3]; 40–60 μM, 96 h) | IC50 ([3]; 72 h) | IC50 ([3]; 96 h) | Inhibition of cell viability of the control ([4]; 60 μM, 72 h) | Inhibition of cell viability of the control ([4]; 60 μM, 96 h) | Inhibition of cell viability of the control ([4]; 20–40 μM, 96 h) | Effect on cyclin D1 and CDK4 expression compared with controls [5] | Effect on cumulative recurrence of HCC [6]
1 | 179 to 181 °C | – | – | – | – | CC(C)=CCC/C(C)=C/CC/C(C)=C/CC/C(C)=C/Cc1c(C)c(OC(=O)CCC(=O)O)c2ccccc2c1OC(=O)CCC(=O)O (as salt: succinate) [MKH-SUC, Menahydroquinone-4 1,4-bis hemisuccinate] | – | – | – | – | – | – | – | –
2 | – | 12.2 ± 4.19 nmol·h·mg Protein^−1 | 41.6 ± 9.04 nmol·h·mg Protein^−1 | 80.2 µM | 88.2 µM | CC(C)=CCC/C(C)=C/CC/C(C)=C/CC/C(C)=C/CC1=C(C)C(=O)c2ccccc2C1=O [MK-4, menaquinone-4, reference compound] | 30–40% | 188 µM | 86.8 µM | about 20% | 40% | 20% | did not affect | did not find any statistically significant improvement
